US11485737B2, “Diaryl substituted 5,5-fused ring compounds as C5aR inhibitors” (CHEMOCENTRYX, INC., priority 2017, dated 2022)

Target: T1, C5aR (Homo sapiens, UniProt P21730)
T1 construct: U937 cells are a monocytic cell line which express C5aR; host or cells: U937 cells (cAMP-treated overnight)
T1 sequence (P21730 1-350): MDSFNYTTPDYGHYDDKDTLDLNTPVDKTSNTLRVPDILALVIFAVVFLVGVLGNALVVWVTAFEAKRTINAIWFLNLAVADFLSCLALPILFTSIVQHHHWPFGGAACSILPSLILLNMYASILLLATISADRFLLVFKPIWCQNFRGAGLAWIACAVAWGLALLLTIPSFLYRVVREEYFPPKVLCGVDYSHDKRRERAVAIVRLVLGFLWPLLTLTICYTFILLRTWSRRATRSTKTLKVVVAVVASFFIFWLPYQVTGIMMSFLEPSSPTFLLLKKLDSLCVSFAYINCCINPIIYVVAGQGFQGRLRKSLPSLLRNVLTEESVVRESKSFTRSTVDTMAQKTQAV
Experiment: Chemotaxis assay using U937 cells (C5a-induced migration)
Assay type: cell-based
Conditions: chemotaxis (migration) of U937 cells towards C5a; read-out: Mig IC50
Method: U937 cells are a monocytic cell line which express C5aR, and are available from ATCC (VA). These cells were cultured as a suspension in RPMI-1640 medium supplemented with 2 mM L-glutamine, 1.5 g/L sodium bicarbonate, 4.5 g/L glucose, 10 mM HEPES, 1 mM sodium pyruvate, and 10% FBS. Cells were grown under 5% CO2/95% air, 100% humidity at 37° C. and subcultured twice weekly at 1:6 (cells were cultured at a density range of 1×10^5 to 2×10^6 cells/mL) and harvested at 1×10^6 cells/mL. Prior to assay, cells are treated overnight with 0.5 mM of cyclic AMP (Sigma, OH) and washed once prior to use. cAMP treated U937 cells can be used in C5aR ligand binding and functional assays.
Optionally, compounds may be further assayed for their ability to inhibit chemotaxis in cells. Chemotaxis assays are performed using 5 μm pore polycarbonate, polyvinylpyrrolidone-coated filters in 96-well chemotaxis chambers (Neuroprobe; Gaithersburg, Md.) using chemotaxis buffer (Hank's balanced salt solution (HBSS) and 1% FBS). C5aR ligands (i.e., C5a, R&D Systems; Minneapolis, Minn.) are use to evaluate compound mediated inhibition of C5aR mediated migration. Other chemokines (i.e., SDF-1α; R&D Systems; Minneapolis, Minn.) are used as specificity controls. The lower chamber is loaded with 29 μl of chemokine (i.e., 0.03 nM C5a) and varying amounts of compound; the top chamber contains 100,000 U937 or neutrophil cells in 20 μl. The chambers are incubated 1.5 hours at 37° C., and the number of cells in the lower chamber quantified either by direct cell counts in five high powered fields per well or by the CyQuant assay (Molecular Probes), a fluorescent dye method that measures nucleic acid content and microscopic observation.
The compounds in Table 1, below, were prepared using the methods described above. Characterization data is provided for each compound listed. Activity is provided as follows for the chemotaxis assay using U937 cells as described herein (Example 7): +, 500 nM<IC50; ++, 50 nM<IC50<500 nM; +++, 5 nM<IC50<50 nM; and ++++, IC50<5 nM.

| Compound | IC50 [nM] |
| --- | --- |
| CNc1ccc(-c2c3c(nn2-c2c(C)cccc2C)CN(c2cc(C(C)(C)C)ccc2C)C3)cc1 [Compound 1.050] | > 500 |
| Cc1ccc(C(C)(C)C)cc1N1Cc2nn(-c3c(C)cccc3C)c(-c3ccc(N)cc3)c2C1 [Compound 1.051] | < 5 |
| COc1cccc(C)c1-n1nc2c(c1-c1ccc(N)cc1)CN(c1cc(C(C)(C)C)ccc1C)C2 [Compound 1.055] | 5 to 50 |

Further lines, results first:

| IC50 [nM] | Compound |
| --- | --- |
| > 500 | COc1cccc(C)c1-n1nc2c(c1-c1ccc(NC(N)=O)cc1)CN(c1cc(C(C)(C)C)ccc1C)C2 [Compound 1.052] |
| 5 to 50 | CCCOc1cccc(C)c1-n1nc2c(c1-c1ccc(N)cc1)CN(c1cc(C(C)(C)C)ccc1C)C2 [Compound 1.053] |
| 5 to 50 | CCOc1cccc(C)c1-n1nc2c(c1-c1ccc(N)cc1)CN(c1cc(C(C)(C)C)ccc1C)C2 [Compound 1.054] |
